Measured values published in PMC12390942, “Gut microbiota–derived metabolite trimethylamine N-oxide alters the host epigenome through inhibition of S-adenosylhomocysteine hydrolase” (The Journal of Biological Chemistry, 2025).

Legend:
[1] = target: T1, S-adenosylhomocysteine hydrolase (AHCY) (Homo sapiens, UniProt P23526); test: enzymatic turnover of SAH by purified recombinant AHCY, LC-MS quantification of adenosine; type: biochemical
T1 construct: human full-length AHCY, N-terminal 6xHis tag

[2] = target: T1, S-adenosylhomocysteine hydrolase (AHCY); test: steady-state inhibition kinetics on purified recombinant AHCY, ADA-coupled, LC-MS quantification of inosine; type: biochemical

T1 sequence (P23526 whole entry): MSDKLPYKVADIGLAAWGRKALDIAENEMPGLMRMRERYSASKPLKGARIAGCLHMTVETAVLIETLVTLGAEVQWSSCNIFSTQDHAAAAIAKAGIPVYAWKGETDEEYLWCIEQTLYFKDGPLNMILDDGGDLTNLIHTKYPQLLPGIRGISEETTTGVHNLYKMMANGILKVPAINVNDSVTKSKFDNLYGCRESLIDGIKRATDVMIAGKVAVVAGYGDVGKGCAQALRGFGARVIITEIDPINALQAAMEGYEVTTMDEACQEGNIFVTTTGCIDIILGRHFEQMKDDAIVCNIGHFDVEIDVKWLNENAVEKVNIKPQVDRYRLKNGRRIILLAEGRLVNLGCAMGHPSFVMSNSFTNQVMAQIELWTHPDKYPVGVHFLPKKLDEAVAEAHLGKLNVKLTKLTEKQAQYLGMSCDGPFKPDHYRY

SMILES | enzymatic turnover of SAH by purified recombinant AHCY, LC-MS quantification of [1] | Ki [2] [µM]
Nc1ncnc2c1ncn2[C@@H]1O[C@H](CSCC[C@H](N)C(=O)O)[C@@H](O)[C@H]1O [SAH] | purified AHCY revealed that SAH is converted to adenosine in an enzyme dependent fashion | 
C[N+](C)(C)[O-] [TMAO] |  | 36.5
